IC50 data for 25 molecules are collected here from patent publication US20230059136A1, “THE COMPOUNDS AND COMPOSITIONS FOR TREATING CONDITIONS ASSOCIATED WITH NLRP ACTIVITY” (Novartis AG, priority 2018, published 2023).

The test system of test [1] is IL-1β production in PMA-differentiated THP-1 cells. The test can be described thus: IL-1β production in PMA-differentiated THP-1 cells stimulated with gramicidin (hTHP-1 assay containing 2% fetal bovine serum). The class given is cell-based, human. The essentials: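 IL-1β release was read by HTRF on supernatants of 50,000 PMA-primed (20 ng/ml, 16-18 h) THP-1 cells/well in 2% FBS medium. Cells saw compound for 1 h (11-point titration from 100 μM, 0.37% DMSO) before a 2 h gramicidin (5 μM) challenge.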

Test [2] shares this test system. In words: hTHP-1 assay containing 10% fetal bovine serum (IL-1β production, gramicidin-stimulated THP-1 cells). As to conditions: read-out: hTHP-1 IC50 in 10% FBS, average IC50. It is filed as cell-based, human. The method, then: Activity key: <0.008 μM=“++++++”; ≥0.008 and <0.04 μM=“+++++”; ≥0.04 and <0.2 μM=“++++”; ≥0.2 and <1 μM=“+++”; ≥1 and <5 μM=“++”; ≥5 and <30 μM=“+”. ND=not determined.

Setting [3] is: Homo sapiens, THP-1, Table B2, 2% fetal bovine serum, class symbols, read-out: hTHP-1 IC50 (Average IC50 of compounds in hTHP-1 assay).
Where [4] appears, read: Homo sapiens, THP-1, Table B2, 2% fetal bovine serum, cells printed as numeric bound, read-out: hTHP-1 IC50 (Average IC50 of compounds in hTHP-1 assay).
Where [5] appears, read: Homo sapiens, THP-1, Table B1, 2% fetal bovine serum, class symbols, read-out: hTHP-1 IC50 (Average IC50 of compounds in hTHP-1 assay).

Turning to `CC(C)c1cc2c(c(C(C)C)c1CC(=O)N=S(N)(=O)c1nn(CCO)cc1F)OC(F)(F)O2` (racemic) [Example 405, (R) and (S)—N-(amino(4-fluoro-1-(2-hydroxyethyl)-1H-pyrazol-3-yl)(oxo)-λ^6-sulfaneylidene)-2-(2,2-difluoro-4,6-diisopropylbenzo[d][1,3]dioxol-5-yl)acetamide], the half-inhibitory concentration (IC50) was 0.2 to 1 µM in test [1] (read-out: hTHP-1 IC50 in 2% FBS, average IC50, hTHP-1 assay containing 2% fetal bovine serum) and 0.04 to 0.2 µM in test [2].
As to `CNCc1ccc(S(N)(=O)=NC(=O)Cc2c(-c3ccccc3)cc(F)cc2C(C)C)cc1` (single isomer, unassigned) [Example 413, (S) or (R)-N-(amino(4-((methylamino)methyl)phenyl) (oxo)-λ^6-sulfaneylidene)-2-(5-fluoro-3-isopropyl-[1,1′-biphenyl]-2-yl)acetamide], the half-inhibitory concentration (IC50) in test [2] fell in the range of 5 to 30 µM.
Take `CNCc1ccc(S(N)(=O)=NC(=O)Cc2c(-c3ccccc3)cc(F)cc2C(C)C)cc1` (single isomer, unassigned) [Example 414, (R) or (S)-N-(amino(4-((methylamino)methyl)phenyl) (oxo)-λ^6-sulfaneylidene)-2-(5-fluoro-3-isopropyl-[1,1′-biphenyl]-2-yl)acetamide]: the half-inhibitory concentration (IC50) in test [2] lay in the range of 0.2 to 1 µM.
On to `CC(C)c1cc2c(c(C(C)C)c1CC(=O)N=S(N)(=O)c1nn(C[C@@H](C)O)cc1F)OC(F)(F)O2` (single isomer, unassigned) [Example 415, (R) or (S)-N-(amino(4-fluoro-1-((R)-2-hydroxypropyl)-1H-pyrazol-3-yl)(oxo)-λ^6-sulfaneylidene)-2-(2,2-difluoro-4,6-diisopropylbenzo[d][1,3]dioxol-5-yl)acetamide], for which the IC50 in test [2] is 0.04 to 0.2 µM.
On the same count and under the same terms, the value for `CC(C)c1cc2c(c(C(C)C)c1CC(=O)N=S(N)(=O)c1nn(C[C@@H](C)O)cc1F)OC(F)(F)O2` (single isomer, unassigned) [Example 416, (S) or (R)-N-(amino(4-fluoro-1-((R)-2-hydroxypropyl)-1H-pyrazol-3-yl)(oxo)-λ^6-sulfaneylidene)-2-(2,2-difluoro-4,6-diisopropylbenzo[d][1,3]dioxol-5-yl)acetamide] was 5 to 30 µM.
As to `CC(C)c1cc(C#N)c(F)c(C(C)C)c1CC(=O)N=S(=O)(NC#N)c1cnc(C(O)CO)s1` (centres unmarked) [Example 372, N-(cyanamido(2-(1,2-dihydroxyethyl)thiazol-5-yl)(oxo)-λ^6-sulfaneylidene)-2-(4-cyano-3-fluoro-2,6-diisopropylphenyl)acetamide], the IC50 in test [1] (setting [3]) was in the range of 5 to 30 µM.
The same measure, in the same setting: the same measure for `CC(C)c1cc(C#N)cc(C(C)C)c1CC(=O)N=[S@](=O)(NC#N)c1sc(C(C)(C)O)nc1CCO` [Example 373, (S)-N-(cyanamido(4-(2-hydroxyethyl)-2-(2-hydroxypropan-2-yl)thiazol-5-yl)(oxo)-λ^6-sulfaneylidene)-2-(4-cyano-2,6-diisopropylphenyl)acetamide]: 5 to 30 µM.
Still for that read-out and setting: the value for `CC(C)c1cc(C#N)cc(C(C)C)c1CC(=O)N=[S@@](=O)(NC#N)c1sc(C(C)(C)O)nc1CCO` [Example 374, (R)-N-(cyanamido(4-(2-hydroxyethyl)-2-(2-hydroxypropan-2-yl)thiazol-5-yl)(oxo)-λ^6-sulfaneylidene)-2-(4-cyano-2,6-diisopropylphenyl)acetamide] was 0.04 to 0.2 µM; that for `CC(C)c1cc(C#N)cc(C(C)C)c1CC(=O)N=[S@](=O)(NC#N)c1nc(CO)c(C(C)(C)O)s1` [Example 375, (S)-N-(cyanamido(4-(hydroxymethyl)-5-(2-hydroxypropan-2-yl)thiazol-2-yl)(oxo)-λ^6-sulfaneylidene)-2-(4-cyano-2,6-diisopropylphenyl)acetamide] was 5 to 30 µM.
Take `CC(C)c1cc(C#N)cc(C(C)C)c1CC(=O)N=[S@@](=O)(NC#N)c1nc(CO)c(C(C)(C)O)s1` [Example 376, (R)-N-(cyanamido(4-(hydroxymethyl)-5-(2-hydroxypropan-2-yl)thiazol-2-yl)(oxo)-λ^6-sulfaneylidene)-2-(4-cyano-2,6-diisopropylphenyl)acetamide]: in test [1] (setting [3]), the IC50 is 0.2 to 1 µM.
`COc1ccc(C(C)(C)O)cc1[S@](=O)(=NC(=O)Cc1c(C(C)C)cc(C#N)cc1C(C)C)NC#N` [Example 377, (S)-N-(cyanamido(5-(2-hydroxypropan-2-yl)-2-methoxyphenyl)(oxo)-λ^6-sulfaneylidene)-2-(4-cyano-2,6-diisopropylphenyl)acetamide]: the IC50 in test [1] (setting [4]) is over 30 µM.
Consider `COc1ccc(C(C)(C)O)cc1[S@@](=O)(=NC(=O)Cc1c(C(C)C)cc(C#N)cc1C(C)C)NC#N` [Example 378, (R)-N-(cyanamido(5-(2-hydroxypropan-2-yl)-2-methoxyphenyl)(oxo)-λ^6-sylfaneylidene)-2-(4-cyano-2,6-diisopropylphenyl)acetamide], for which, in test [1] (setting [3]), the IC50 is 5 to 30 µM.
As to `CNCc1ccc(S(N)(=O)=NC(=O)Cc2c(-c3ccccc3)ccc3c2CCC3)cc1` (centres unmarked) [Example 379, N-(amino(4-((methylamino)methyl)phenyl)(oxo)-λ^6-sulfaneylidene)-2-(5-phenyl-2,3-dihydro-1H-inden-4-yl)acetamide], the IC50 in test [1] (setting [3]) was in the range of 5 to 30 µM.
In the case of `CC(C)c1cc2ccccc2c(C(C)C)c1CC(=O)N=[S@@](N)(=O)c1cnc(C(C)(C)O)s1` [Example 389, (R)-N-(amino(2-(2-hydroxypropan-2-yl)thiazol-5-yl) (oxo)-λ^6-sulfaneylidene)-2-(1,3-diisopropylnaphthalen-2-yl)acetamide], in test [1] (setting [4]), the IC50 is over 30 µM.
The same measure, in the same setting: the same measure for `CC(C)c1cc(C(F)F)cc(C(C)C)c1CC(=O)N=S(=O)(NC(=O)Cc1c(C(C)C)cc(C(F)F)cc1C(C)C)c1ccc(CN(C)C)nc1` (centres unmarked) [Example 390, 2-(4-(Difluoromethyl)-2,6-diisopropylphenyl)-N-((2-(4-(difluoromethyl)-2,6-diisopropylphenyl)acetamido)(6-((dimethylamino)methyl)pyridin-3-yl)(oxo)-λ^6-sulfaneylidene)acetamide]: over 30 µM; for `CC(C)c1cc2c(cnn2C)c(C(C)C)c1CC(=O)N=S(N)(=O)c1ncc(C(C)(C)O)s1` (centres unmarked) [Example 391, N-(Amino(5-(2-hydroxypropan-2-yl)thiazol-2-yl)(oxo)-λ^6-sulfaneylidene)-2-(4,6-diisopropyl-1-methyl-1H-indazol-5-yl)acetamide]: over 30 µM; for `CC(C)c1ncnc(C(C)C)c1CC(=O)N=S(N)(=O)c1cnc(C(C)(C)O)s1` (centres unmarked) [Example 392, N-(amino(2-(2-hydroxypropan-2-yl)thiazol-5-yl)(oxo)-λ^6-sulfaneylidene)-2-(4,6-diisopropylpyrimidin-5-yl)acetamide]: over 30 µM.
In the case of `CCn1cc(F)c(S(N)(=O)=NC(=O)Cc2c(C(C)C)cc3c(c2C(C)C)COC3)n1` (centres unmarked) [Example 393, N-(amino(1-ethyl-4-fluoro-1H-pyrazol-3-yl)(oxo)-λ^6-sulfaneylidene)-2-(4,6-diisopropyl-1,3-dihydroisobenzofuran-5-yl)acetamide], the half-maximal inhibitory concentration (IC50) in test [1] (setting [3]) lay in the range of 1 to 5 µM.
On to `CCn1cc(F)c(S(N)(=O)=NC(=O)Cc2c(C(C)C)cc3c(c2C(C)C)OC(F)(F)O3)n1` (centres unmarked) [Example 394, N-(amino(1-ethyl-4-fluoro-1H-pyrazol-3-yl)(oxo)-λ^6-sulfaneylidene)-2-(2,2-difluoro-4,6-diisopropylbenzo[d][1,3]dioxol-5-yl)acetamide], for which the IC50 in test [1] (setting [3]) lay in the range of 0.2 to 1 µM.
Same read-out and setting: the value for `CC(C)c1c2c(c3c(c1CC(=O)N=S(N)(=O)c1sc(C(C)(C)O)cc1F)CCC3)COC2` (centres unmarked) [Example 395, N-(Amino(3-fluoro-5-(2-hydroxypropan-2-yl)thiophen-2-yl) (oxo)-λ^6-sulfaneylidene)-2-(4-isopropyl-3,6,7,8-tetrahydro-1H-indeno[4,5-c]furan-5-yl)acetamide] was 0.2 to 1 µM.
As to `Cc1cc(C(F)(F)F)cc(O)c1CC(=O)N=S(N)(=O)c1ccccc1` (centres unmarked) [Example 404, N-(amino(oxo)(phenyl)-λ^6-sulfaneylidene)-2-(2-hydroxy-6-methyl-4-(trifluoromethyl)phenyl)acetamide], the half-maximal inhibitory concentration (IC50) in test [1] (Homo sapiens, THP-1, read-out: hTHP-1 IC50 in 2% FBS, average IC50, hTHP-1 assay containing 2% fetal bovine serum) lay in the range of 5 to 30 µM.
Consider `CC(C)c1ccc(F)c(C(C)C)c1CC(=O)N=[S@@](N)(=O)c1cc(C(C)(C)O)cs1` [compound 88, (R)-N-(amino(4-(2-hydroxypropan-2-yl)thiophen-2-yl)(oxo)-λ^6-sulfanylidene)-2-(3-fluoro-2,6-diisopropylphenyl)acetamide], for which the IC50 in test [1] (setting [5]) lay in the range of 0.2 to 1 µM.
On the same count and under the same terms, the same measure for `CC(C)c1nc(-c2cccc(C(F)(F)F)c2)c(F)c(C(C)C)c1CC(=O)N=[S@@](N)(=O)c1cnc(C(C)(C)O)s1` [compound 89, (R)-N-(amino(2-(2-hydroxypropan-2-yl)thiazol-5-yl)(oxo)-λ^6-sulfanylidene)-2-(5-fluoro-2,4-diisopropyl-6-(3-(trifluoromethyl)phenyl)pyridin-3-yl)acetamide]: 0.2 to 1 µM.
Take `CC(C)c1cc(C#N)c(F)c(C(C)C)c1CC(=O)N=S(=O)(NC(N)=O)c1cnc([C@](C)(O)CO)s1` (some centres unmarked) [compound 355]: the IC50 in test [1] (setting [4]) is over 30 µM.
With `CC(C)c1cc(C#N)c(F)c(C(C)C)c1CC(=O)N=S(N)(=O)c1cnc(C(O)CO)s1` (centres unmarked) [compound 382], the IC50 in test [1] (setting [3]) is 1 to 5 µM.

Usually IC50 stands for the point on the concentration scale where inhibition reaches its midpoint.
